Values joined by “and” are separate entries in the source; they are usually repeats but may differ in a detail not shown here. Equal entries are not always repeated.
Key:
[1] = test system: blood-perfused sino-atrial preparation; experiment: Determination of sinus rate on blood-perfused sino-atrial preparation; design: species or system dog; conditions: vs sinus rate prior to injection; for activation at 0.003 mg: dose 3.0 ug; for activation at 0.03 mg: dose 30.0 ug; for activation at 0.01 mg: dose 10.0 ug; for activation at 0.0001 mg: dose 0.1 ug; for change of sinus rate(%): listed as 8-methyl-6-(4-met-hylimidazol-1-)-( 4H)-3,1-benzothia-zin-2-one
Procedure: Mongrel dogs of either sex weighing 7-12kg were anesthetized with sodium pentoba rbital(30mg/kg i.v.). Heparin of 1000 unit/kg was administered to each animal intravenously and the animals were exsanguinated. Heart was removed and put in Krebs-Henselelt solution. Catheter was inserted into blood vessel between right coronary artery and SA nodes. Right artrium and catheter were together removed. Blood supplied from carotid artery of donor dog of either sex weighing 15-25kg, was supplied to blood vessel cather from right coronary artery and SA node under constant blood pressure of 100mmHg by use of Peristaltic pump. The resting tension of right atrial muscle was made to 2g. The sinus rate triggered by spontaneous contraction of atrial muscle was determined on Narco physiograph(Narcotrace 4). Detailed method was reported by S. Chiba, et al. in Japanese Pharmacology 25, 433-439(1975). Doses of test compounds were injected into flowing blood in gum tube connected to the near part of the catheter inserted into right coronary artery. The effects on sinus rate were shown as percent compared with the sinus rate prior to the injection of the test compounds.

[2] = test system: blood perfused papillary muscle preparation; experiment: Determination of contractile power on blood perfused papillary muscle preparation; design: species or system dog; conditions: for ED 30: dose giving 30% increase of developed tension, least-square method
Procedure: Dogs of either sex weighing 7-12kg were anesthetized with sodium pentobarbital (30mg/kg,i.v.). Heparin of 1000 unit/kg was administered to each animal intravenously. The animals were exsanguinated and heart was removed. The preparation was perfused through the cannulated anterior septal artery(ASA) with arterial blood from a donor dog at constant pressure of about 100 mmHg. Donor dogs were anesthetized with sodium pentobarbital (30mg/kg, i.v.). Heparin of 1000 units/kg was administered intravenously. The papillary muscle was stimulated with rectangular pulses of 5- ms duration and about 1.5 times the threshold voltage at a rate of 120 stimuli/min through bipolar electrodes.Resting tension was made to 2 g.The developed tension of papillary muscle was determined by Isometric tresducer.Detailed method was reported by Matsumoto in Am. J. Physiol. 218, 1459-1463 (1970). Test compound at the doses of 10-30ul was injected in flowing blood in the gum tube connected to catheter. The inotropic effect of the test compounds was shown by change percent of developed tension compared with that prior to the administration of the test compounds.ED₃₀ value was determined by least-square method and the results were shown in the Table 1.

[3] = Acute toxicity test in ICR mouse, intravenous; conditions: in vivo
Procedure: Acute toxicity test of 6-(4-methylimidazol-1-yl)-(4H)-3,1-benzothiazin-2-one was conducted in ICR mouse. The test compound was dissolved in a mixed solvent of saline and DMF (2:1) and was administered intraveneously to five mice at a dose of 30mg/kg body weight. […] Accordingly, LD₅₀ of the cmpound is 30mg/kg or more.

[4] = Acute toxicity test in rats, oral; conditions: rat, in vivo
Procedure: Acute toxicity test of 6-(4-methylimidazol-1-yl)-(4H)-3,1-benzoxazin-2-one was conducted in Spraque-Dawley rats. The test compound was suspended in 5% arabic gum and was administered orally to six rats at a dose of 300mg/kg body weight.
Accordingly, LD 50 of the compound is 300 mg/kg or more.

[5] = target: cyclic AMP phosphodiesterase; experiment: Effect on cyclic AMP phosphodiesterase isolated from dog's heart; format: biochemical; conditions: substrate 1.0 uM; for Inhibitory effect on PDE activity: values fall with concentration
Procedure: Dogs weighing 10 kg were anesthetized with sodium pentobarbital and heparin was administered intravenously. Heart was removed. Two to four grams of left ventricular muscle was obtained and the tissue was rinsed in ice-cold salin. Left ventricular muscle was homogenized in10 volumes of homogenzing buffer(Tris-HCl, pH 7.8). Homogenate was then centrifuged at 100,000 X g for 40 minutes, after which the supernatent was removed. The pellet was resuspended in homogenizing buffer, centrifuged as before and the supernatent obtained as discarded. The pellet was resuspended in 10 volumes of homogenizing buffer containing Triton X-100 and Brij 30, and incubated overnight at 4°C. The detergent-extracted proteins were then separated by centrifugation at 100,000 X g for 40 monutes. The detergent-extracted protein was dialyzed against 70mM sodium acetate /5mM 2-mercaptoethanol(pH 6.5) for 5 hours. The dialyzed extract was applied to a DEAE-cellulose column and eluted using a 70-1000 mM sodium acetate gradient. Appropriate fractions were pooled and concentrated using Amicon ultrafiltration cell. Following concentration, the protein was diluted with ethylene glycol and stored at -20°C.
Phosphodiesterase activity was measured in a reaction medium (40mM Tris-HCl, pH 8.0). The concentration of substrate was 1.0 uM. The IC 50 values( concentration which produced 50% inhibition of substrate hydrolysis) for the various compounds examined were determined from concentration-response curves. Detailed method of this experiment was reported in J.Mol.Cell Cardiol. 19, 1025-1036 (1987).

[6] = Acute toxicity test in mice, oral; conditions: mouse, in vivo
Procedure: Acute toxicity test of 6-(4-methylimidazol-1-yl)-(4H)-3,1-benzothiazine-2-thione was conducted in BALB/C mice. The test compound was suspended in 5% arabic gum solution and administered orally to five mice at a dose of 200 mg/kg body weight by gastric tubing. […] Accordingly, LD₅₀ of the compound is 200mg/kg or more.

[7] = Canis lupus familiaris, read-out: change of sinus rate(%)
[8] = at the ED 30 dose (30% by definition)
[9] = Canis lupus familiaris, dose 1.0 ug, read-out: change of sinus rate(%)

Row | SMILES | activation at 0.003 mg [1, 7] [%] | activation at 0.03 mg [1, 7] [%] | change of contractivity(%) [2, 8] [%] | activation at 0.001 mg [1, 9] [%] | activation at 0.01 mg [1, 7] [%] | ED 30 [2] | further results
1 | Cc1cn(-c2ccc3c(c2)CSC(=O)N3)cn1 [6-(4-methylimidazol-1-yl)-(4H)-3,1-benzothiazin-2-one] | 2.3 | 5.6 | 30 | – | – | – | change of contractivity(%) ([2]; dose 1.0 ug injected into perfusing blood, developed tension vs before administration): 0.0%; change of contractivity(%) ([2]; dose 3.0 ug injected into perfusing blood, developed tension vs before administration): 7.2% and 1.5%; change of contractivity(%) ([2]; dose 10.0 ug injected into perfusing blood, developed tension vs before administration): 20.5% and 11.5%; change of contractivity(%) ([2]; dose 30.0 ug injected into perfusing blood, developed tension vs before administration): 30.7% and 23.3%; LD50 [3]: ≥ 30 mg/kg
2 | Cc1cn(-c2ccc3c(c2)COC(=O)N3)cn1 [6-(4-methylimidazol-1-yl)(4H)-3,1-benzoxazin-2-one] | 2.52 | – | – | 0 | 5.04 | ED 30 : 10.4 ug | LD50 [4]: ≥ 300 mg/kg; IC50 ([5]; 50% inhibition of substrate hydrolysis): 12.8 µM; Inhibitory effect on PDE activity ([5]; test compound 0.1 uM): 95.1; Inhibitory effect on PDE activity ([5]; test compound 1 uM): 77.5; Inhibitory effect on PDE activity ([5]; test compound 10 uM): 51.7; Inhibitory effect on PDE activity ([5]; test compound 100 uM): 35.8
3 | Cc1cn(-c2ccc3c(c2)COC(=O)N3)c(C)n1 [6-(2,4-dimethylimidzol-1-yl)-(4H)-3,1-benzoxazin-2-one] | 0 | 1.67 | – | 0 | 0 | ED 30 : 81.89 ug | –
4 | Cc1cn(-c2ccc3c(c2)CSC(=S)N3)cn1 [6-(4-methylimidazol-1-yl)-(4H)-3,1-benzothiazine-2-thione] | – | – | – | – | – | – | LD50 [6]: ≥ 200 mg/kg
5 | O=C1Nc2ccc(-n3ccnc3)cc2CO1 [6-(imidazol-1-yl)-(4H)-3,1-benzoxazin-2-one] | 0.84 | 6.67 | – | 0 | 2.52 | ED 30 > 1000 ug | Inhibitory effect on PDE activity ([5]; test compound 0.1 uM): 98.4; Inhibitory effect on PDE activity ([5]; test compound 1 uM): 74.5; Inhibitory effect on PDE activity ([5]; test compound 10 uM): 52.2; Inhibitory effect on PDE activity ([5]; test compound 100 uM): 28.8
6 | Cc1cn(-c2cc(C)c3c(c2)CSC(=O)N3)cn1 [8-methyl-6-(4-methylimidazol-1-yl)-(4H)-3,1-benzothiazin-2-one] | 3.3 | – | 30.0 | – | – | ED 30 = 5.0 ug | activation at 0.0001 mg [1, 7]: 1.7%; change of sinus rate(%) ([1]; dose 0.3 ug): 4.8%; change of sinus rate(%) ([1]; dose 1.0 ug): 8.3%; ED 30 ([2]; listed as 8-methyl-6-(4-met-hylimidazol-1-)-( 4H)-3,1-benzothia-zin-2-one): ED 30 = 0.6 ug
7 | Cc1nccn1-c1ccc2c(c1)COC(=O)N2 [6-(2-methylimidazol-1-yl)-(4H)-3,1-benzoxazine-2-one] | 0 | 3.42 | – | 0 | 0.86 | ED 30 > 1000 ug | –
8 | Cc1cn(-c2cc(C)c3c(c2)COC(=O)N3)cn1 [8-methyl-6-(4-methylimidazol-1-yl)-(4H)-3,1-benzoxazin-2-one] | 5.8 | – | 30.0 | 6.6 | – | ED 30 = 1.2 ug | activation at 0.0001 mg [1, 7]: 0.8%; activation at 0.0003 mg ([1]; Canis lupus familiaris, dose 0.3 ug, read-out: change of sinus rate(%)): 1.7%
9 | O=C1Nc2ccc(-n3ccnc3)cc2CS1 [6-(imidazol-1-yl)-(4H)-3,1-benzothiazin-2-one] | – | – | 30 | – | – | – | –
10 | CCc1nc(C)cn1-c1ccc2c(c1)COC(=O)N2 [6-(2-ethyl-4-methylimidazol-1-yl)-(4H)-3,1-benzoxazin-2-one] | 0 | 1.65 | – | 0 | 0.83 | ED 30 : 269 ug | –
11 | O=C1Nc2ccc(-n3cnc4ccccc43)cc2CO1 [6-(benzimidazol-1-yl)-(4H)-benzoxazin-2-one] | 0 | 0.75 | – | 0 | 0.3 | ED 30 > 1000 ug | Inhibitory effect on PDE activity ([5]; test compound 0.1 uM, listed as 6-(benzimidazol-1-yl)-(4H)-3,1-benzoxazin-2-one): 95.5; Inhibitory effect on PDE activity ([5]; test compound 1 uM, listed as 6-(benzimidazol-1-yl)-(4H)-3,1-benzoxazin-2-one): 90.4; Inhibitory effect on PDE activity ([5]; test compound 10 uM, listed as 6-(benzimidazol-1-yl)-(4H)-3,1-benzoxazin-2-one): 72.3; Inhibitory effect on PDE activity ([5]; test compound 100 uM, listed as 6-(benzimidazol-1-yl)-(4H)-3,1-benzoxazin-2-one): 49.5

— patent EP0510235A1, “Novel benzoxazine or benzothiazine derivatives and process for the preparation of the same” (DONG-A PHARM. CO., LTD., priority 1991, dated 1992)
